System: secreted IL-8 in normal human epidermal keratinocytes (NHEK)
Assay: IL-8 secretion in PMA-stimulated NHEK (anti-inflammatory test)
Type: cell-based
Procedure: In an exemplary test, NHEK were cultured in a medium for 24 hours. […] Then the culture medium was removed and replaced with another culture medium containing or not (control) the […] methyl ester or the reference compound and containing an inflammatory inducer (PMA) and the cells were incubated for 24 hours. A control without inducer was performed in parallel. After incubation, the culture supernatants were collected in order to measure the quantity of secreted IL-8.

CC1(C)[C@@H](O)CC[C@]2(C)[C@H]3C(=O)C=C4[C@@H]5C[C@@](C)(C(=O)O)CC[C@]5(C)CC[C@@]4(C)[C@]3(C)CC[C@@H]12 [Glycyrrhetinic acid, glycyrrhetinic acid]
% Stimulated Control (0.5 μM): 95%
Avg. IL-8 (0.5 μM): 3037 pg/mL
% Stimulated Control (1 μM): 108%
Avg. IL-8 (1 μM): 3470 pg/mL
% Stimulated Control (2 μM): 139%
Avg. IL-8 (2 μM): 4450 pg/mL
inhibition at 0.5 µM (Homo sapiens, IL-8 secretion, 0.5 μM): 5%
inhibition at 1 µM (Homo sapiens, IL-8 secretion, 1 μM): -9%
inhibition at 2 µM (Homo sapiens, IL-8 secretion, 2 μM): -40%

CN[C@@H]1C[C@H]2O[C@@](C)([C@@H]1OC)n1c3ccccc3c3c4c(c5c6ccccc6n2c5c31)C(=O)NC4 [Staurosporine, staurosporine]
% Stimulated Control (10^−9M): 18%
Avg. IL-8 (10^−9M): 588 pg/mL

COC(=O)[C@@]1(C)CC[C@]2(C)CC[C@]3(C)C(=CC(=O)[C@@H]4[C@@]5(C)CC[C@H](O)C(C)(C)[C@@H]5CC[C@]43C)[C@@H]2C1 [Cyrrhetinic methyl ester, cyrrhetinic methyl ester]
% Stimulated Control (15.625 μM): 42%
Avg. IL-8 (15.625 μM): 1349 pg/mL
% Stimulated Control (31.25 μM): 28%
Avg. IL-8 (31.25 μM): 907 pg/mL
% Stimulated Control (62.5 μM): 28%
Avg. IL-8 (62.5 μM): 902 pg/mL
% Inhibition (IL-8 secretion, 15.625 μM): 59%
% Inhibition (IL-8 secretion, 31.25 μM): 73%
% Inhibition (IL-8 secretion, 62.5 μM): 73%
inhibition of IL-8 secretion (maximum over tested concentrations (up to)): ≤ 73%

— patent US20160009755A1, “CYRRHETINIC ALKYL ESTERS AND PROTECTED DERIVATIVES THEREOF” (priority 2013, published 2016)
